Reference: publication PMC9855333, “1-(Arylsulfonyl-isoindol-2-yl)piperazines as 5-HT6R Antagonists: Mechanochemical Synthesis, In Vitro Pharmacological Properties and Glioprotective Activity” (Biomolecules, 2022)

How the values were obtained:
[1] = Cytotoxicity, MTT test, SH-SY5Y; assay type: cell-based; details: human, SH-SY5Y cells (human neuroblastoma)
Description: (§1) Hepatotoxicity, neurotoxicity, and glial cytotoxicity were investigated using the following cellular models: human hepatocellular carcinoma (HepG2), human neuroblastoma (SHSY-5Y), and mouse astrocytes (C8-D1A), all from ATCC (American Type Culture Collection, Manassas, VA, USA). Cells were cultured in appropriate culture media recommended by ATCC supplemented with 10% fetal bovine serum (FBS; Gibco, Life Technologies, Carlsbad, CA, USA) and 1% antibiotic mixture (Gibco, Life Technologies, Carlsbad, CA, USA). Cells were cultured at standard conditions (5% CO2, 95% humidity, 37 °C). For cytotoxicity experiments, cells were seeded into 96 well plates at an initial density of 2000 cells/well. After overnight incubation, cells were treated with 3e, 3f, and 3g in a concentration range of 0.78–50 µM for 48 h; then, an MTT assay was performed as described previously. Briefly, following cell exposure, 10 µL of MTT reagent was added to each well. After the next 4 h, the medium was aspirated, and formazan produced in cells appeared as dark crystals in the bottom of the wells. Next, 100 µL DMSO was added to each well. Then, the optical density of the solution (OD) at 570 nm was determined on a plate reader (Spectra Max iD3, Molecular Devices, San Jose, CA, USA). The experiments were run three times in triplicates.

[2] = Cytotoxicity, MTT test, HepG2; assay type: cell-based; details: human, HepG2 cells (human hepatocellular carcinoma)
Description: as §1

human D2L receptor = biological target: T1, human D2L receptor (Homo sapiens, UniProt P14416); experiment: Radioligand binding, [3H]-raclopride displacement, HEK-293 cells; details: mean ± SEM, three independent binding experiments; read-out: Ki [nM] D2
T1 construct: expressed in transfected cells
Description: All experiments were performed in HEK-293 cells, which stably express the human 5-HT1A, 5-HT6, 5-HT7b, and D2L receptors, or using CHO-K1 cells expressing human serotonin 5-HT2A receptor, following the previously reported procedures. For displacement studies, the following radioligands (PerkinElmer, USA) at given concentrations were used at: 2.5 nM [^3H]-8-OH-DPAT (135.2 Ci/ mmol); 1 nM [^3H]-ketanserin (53.4 Ci/mmol); 2 nM [^3H]-LSD (83.6 Ci/mmol); 0.8 nM [^3H]-5-CT (39.2 Ci/mmol) or 2.5 nM [^3H]-raclopride (76.0 Ci/mmol) for 5-HT1A, 5-HT2A, 5-HT6, 5-HT7b and D2L receptors, respectively. All tested compounds were evaluated in triplicate at 7 concentrations (10^−10–10^−4 M). The inhibition constants (Ki) were calculated from the Cheng–Prusoff equation [25]. A detailed description is reported in the Supporting Information.
1. Procedure for radioligand binding assay
All experiments were carried out according to the previously published procedures. HEK293 cells stably expressing human 5-HT1A, 5-HT6, 5-HT7b and D2L receptors (prepared with the use of Lipofectamine 2000) or CHO-K1 cells with plasmid containing the sequence coding for the human serotonin 5-HT2A receptor (Perkin Elmer) were maintained at 37 °C in a humidified atmosphere containing 5% CO2 and grown in Dulbecco’s Modified Eagle’s Medium containing 10% dialyzed fetal bovine serum and 500 μg/ml G418 sulfate. For membrane preparation, cells were cultured in 150 cm2 flasks, grown to 90% confluence, washed twice with pre-warmed to 37 °C phosphate buffered saline (PBS) and centrifuged (200 × g) in PBS containing 0.1 mM EDTA and 1 mM dithiothreitol. Prior to membrane preparation, pellets were stored at –80 °C. […]
The process of equilibration was terminated by rapid filtration through Unifilter plates with a 96-well cell harvester and radioactivity retained on the filters was quantified on a Microbeta plate reader (PerkinElmer, USA). […] The inhibition constants (Ki) were calculated from the Cheng-Prusoff equation [4].

[3] = Cytotoxicity, MTT test, C8-D1A; assay type: cell-based; details: mouse, C8-D1A cells (mouse astrocytes)
Description: as §1

T1 sequence (P14416 whole entry): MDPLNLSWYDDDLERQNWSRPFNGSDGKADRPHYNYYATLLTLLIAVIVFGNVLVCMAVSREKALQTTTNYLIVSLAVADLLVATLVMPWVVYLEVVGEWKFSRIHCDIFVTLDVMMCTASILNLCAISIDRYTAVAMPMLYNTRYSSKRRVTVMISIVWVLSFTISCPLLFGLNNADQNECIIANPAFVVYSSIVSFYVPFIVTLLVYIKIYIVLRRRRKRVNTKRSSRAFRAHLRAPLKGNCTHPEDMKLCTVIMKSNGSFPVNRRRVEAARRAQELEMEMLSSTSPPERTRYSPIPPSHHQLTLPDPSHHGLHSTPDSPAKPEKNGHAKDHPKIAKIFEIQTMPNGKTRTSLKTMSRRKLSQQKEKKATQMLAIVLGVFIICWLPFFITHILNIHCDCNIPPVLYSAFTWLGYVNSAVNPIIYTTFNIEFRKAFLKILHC

SMILES	IC50 at 48 h [1] [µM]	IC50 at 48 h [2] [µM]	Ki (human D2L receptor) [nM]	IC50 at 48 h [3] [µM]
O=S(=O)(c1cccc(N2CCNCC2)c1)N1Cc2ccccc2C1 [3e, 2-{[3-(Piperazin-1-yl)phenyl]sulfonyl}isoindoline]	42	> 50	3420 ± 415	> 50
O=S(=O)(c1cccc(N2CCNCC2)c1)N1Cc2cccc(Cl)c2C1 [3f, 4-Chloro-2-{[3-(piperazin-1-yl)phenyl]sulfonyl}isoindoline]	38	> 50	2030 ± 299	> 50
O=S(=O)(c1cccc(N2CCNCC2)c1)N1Cc2cccc(Br)c2C1 [3g, 4-Bromo-2-{[3-(piperazin-1-yl)phenyl]sulfonyl}isoindoline]	48	> 50	2440 ± 324	> 50
